Data taken from the supplement of paper PMC6045584.
± gives the standard deviation of the averaged measurements.

What follows are test systems tested with COc1cc([C@@H]2c3cc4c(cc3[C@@H](O[C@@H]3O[C@@H]5CO[C@@H](C)O[C@H]5[C@H](O)[C@H]3O)[C@H]3COC(=O)[C@H]23)OCO4)cc(OC)c1O [ETOPOSIDE] (assay: surviving fraction relative to DMSO-only wells; higher = less growth inhibition). Conditions: 50 nM; exposure time: 5 days.
Procedure, shortened: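 Tumour cell lines in log phase were plated in 384-well plates at 250–500 cells per well, then, after 24 hours, exposed continuously for five days to inhibitors at 0.5, 1, 5, 10, 50, 100, 500 and 1000 nM. Viability came from CellTiter-Glo luminescence, and surviving fraction is that signal normalised to the median of DMSO-only wells. Plates were read after 10 minutes at room temperature, and each line, screened three times, was kept only when replicate Pearson r was >0.7 and median Z' was >0.3.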

| Test System | surviving fraction |
| --- | --- |
| NY BONE | 1.07 ± 0.05 |
| OS25HAL BONE | 1.07 ± 0.041 |
| OSHN BONE | 1.07 ± 0.042 |
| PCI30 HEADNECK | 1.07 ± 0.05 |
| RDES SOFT TISSUE | 0.854 ± 0.21 |
| S68 BREAST | 1.07 ± 0.22 |
| SAOS2 BONE | 1.13 ± 0.035 |
| SCC36 HEADNECK | 1.02 ± 0.052 |
| SCC47 HEADNECK | 1.11 ± 0.071 |
| SCC90 HEADNECK | 1.22 ± 0.15 |
| SG27 HEADNECK | 1.08 ± 0.15 |
| SG28 HEADNECK | 1.07 ± 0.2 |
| SG31 HEADNECK | 0.946 ± 0.11 |
| SG32 HEADNECK | 1.1 ± 0.098 |
| SG43 HEADNECK | 0.876 ± 0.031 |
| SIHA CERVIX | 1.12 ± 0.049 |
| SJSA1 BONE | 1.05 ± 0.03 |
| SKBR3 BREAST | 1.12 ± 0.11 |
| SNU475 LIVER | 0.9937 ± 0.0049 |
| SUM44 BREAST | 1.09 ± 0.043 |
| SUM149 BREAST | 0.753 ± 0.044 |
| SUM149.B1*.S BREAST | 1.08 ± 0.03 |
| SUM159 BREAST | 1.06 ± 0.055 |
| SYO1 SYNOVIAL | 0.7 ± 0.044 |
| T47D BREAST | 1.03 ± 0.047 |
| U2OS BONE | 1.022 ± 0.0045 |
| VCAP PROSTATE | 1.07 ± 0.1 |
| VP229 BREAST | 1.17 ± 0.062 |
| YAMATO SYNOVIAL | 1.26 ± 0.018 |
| ZR751 BREAST | 0.996 ± 0.022 |

Same assay, conditions: 100 nM; exposure time: 5 days

| Test System | surviving fraction |
| --- | --- |
| MDAMB453 BREAST | 1.15 ± 0.076 |
| MDAMB468 BREAST | 1.25 ± 0.089 |
| MFM223 BREAST | 1.06 ± 0.035 |
| MG63 BONE | 1.05 ± 0.066 |
| MHM BONE | 1.02 ± 0.045 |
| NCIH441 LUNG | 0.829 ± 0.05 |
| NOS1 BONE | 0.91 ± 0.24 |
| NY BONE | 1.06 ± 0.03 |
| OS25HAL BONE | 1.04 ± 0.019 |
| OSHN BONE | 1.07 ± 0.048 |
| PCI30 HEADNECK | 1.01 ± 0.053 |
| RDES SOFT TISSUE | 1.15 ± 0.3 |
| S68 BREAST | 0.776 ± 0.095 |
| SAOS2 BONE | 1.147 ± 0.011 |
| SCC36 HEADNECK | 1.15 ± 0.086 |
| SCC47 HEADNECK | 1.06 ± 0.084 |
| SCC90 HEADNECK | 1.13 ± 0.13 |
| SG27 HEADNECK | 1.04 ± 0.037 |
| SG28 HEADNECK | 1.09 ± 0.093 |

| Test System | surviving fraction |
| --- | --- |
| SG31 HEADNECK | 0.969 ± 0.11 |
| SG32 HEADNECK | 1 ± 0.14 |
| SG43 HEADNECK | 0.645 ± 0.11 |
| SIHA CERVIX | 1.16 ± 0.11 |
| SJSA1 BONE | 1.02 ± 0.076 |
| SKBR3 BREAST | 1.05 ± 0.084 |
| SNU475 LIVER | 0.957 ± 0.066 |
| SUM44 BREAST | 1.11 ± 0.062 |
| SUM149 BREAST | 0.563 ± 0.025 |
| SUM149.B1*.S BREAST | 1.043 ± 0.0053 |
| SUM159 BREAST | 0.977 ± 0.079 |
| SYO1 SYNOVIAL | 0.505 ± 0.051 |
| T47D BREAST | 0.96 ± 0.068 |
| U2OS BONE | 0.867 ± 0.057 |
| VCAP PROSTATE | 1.05 ± 0.092 |
| VP229 BREAST | 1.13 ± 0.064 |
| YAMATO SYNOVIAL | 1.11 ± 0.096 |
| ZR751 BREAST | 0.968 ± 0.089 |

Same assay, conditions: 500 nM; exposure time: 5 days

| Test System | surviving fraction |
| --- | --- |
| MDAMB453 BREAST | 1.14 ± 0.12 |
| MDAMB468 BREAST | 1.09 ± 0.072 |
| MFM223 BREAST | 0.721 ± 0.032 |
